Laboratory results from patent EP1658846B1, “N-(8,8,8-trifluorooctyl)-1,5-dideoxy-1,5-imino-D-glucitol for treating hepatitis virus infections” (priority 1999, dated 2000).
≈ marks a conversion by molar mass, not a printed value. Where two headings read alike, the source gives them in different places.

How the values were obtained:
Hepatitis B Virus = assay: HBV secretion from chronically HBV secreting HepG2.2.15 cells (preS1 immunoprecipitation of virions, PCR); type: cell-based; conditions: for Relative amount of HBV secreted as a % of Control: 3 days, control = 100
Description: (§1) The anti-hepatitis B virus activity and effect on cell viability of a number of different N-substituted-1,5-dideoxy-1,5-imino-D-glucitol compounds were assessed using an in vitro assay employing chronically hepatitis B virus secreting HepG2.2.15 cells. The method employed was essentially that described in Block et al. (1994) Proc. Natl. Acad. Sci. USA 91:2235-2239.

HepG2.2.15 cells = assay: Cell viability by trypan blue exclusion; type: cell-based; conditions: 3 days, cells excluding trypan blue
[1] = tested on: HepG 2.2.15 (2.2.15) cells; assay: IC-90 values used for the combostat dilutions (unpublished observation / literature); type: cell-based; conditions: Hepatitis B virus, HepG2.2.15, T. Block and G. Jacob
Description: The anti-hepatitis B virus effect of […] (3TC) alone and in combination with N-nonyl-DNJ was determined according to Korba ((1996) Antiviral Research 29(1):49-51), using the "combostat" strategy (Comstat Program, Combostat Corp., Duluth, MN). The combostat method involves serially diluting the IC-90 of each compound. The IC-90 of N-nonyl-DNJ has been determined to be between 4 and 10 µg/ml (T. Block and G. Jacob, unpublished observation). The accepted IC-90 for 3TC in HepG 2.2.15 (2.2.15) cells is 300nM to 500nM (Doong et al. (1991) Proc. Natl. Acad. Sci. USA 88:8495-8499).

HBV DNA = assay: Cell culture experiments with N-nonyl-DNJ: total HBV DNA and immune precipitated DNA; type: cell-based
Source text: (§2) There are two measures of drug efficacy: reduction in total HBV DNA (measured by quantitative PCR), and reduction in HBV DNA from capsids with intact surface glycoproteins, which is the active form of the virus (measured by an ELISA-like immune precipitation assay followed by quantitative PCR).

[2] = tested on: woodchuck hepatitis virus (WHV); assay: Monotherapy in woodchuck model, BID oral dosing for 4 weeks; type: in vivo
Description: Therefore, five groups of four animals each (all groups had both sexes, all but the control had two of each sex) were assigned to 0, 12.5, 25, 50, and 100 mg/kg/day with BID oral dosing. These were lab-reared wild animals. All animals were infected with woodchuck hepatitis virus (WHV) as neonates, and had been tested positive on serological tests for WHV surface antigen. Blood samples were drawn one week prior to dosing (-1 week), immediately before dosing (0 weeks), weekly during dosing (1, 2, 3, and 4 weeks), and after the end of dosing (5, 6, 8, and 10 weeks).
as §2
Before models are fitted to the data, a log transform was applied because: 1) the variation in IPDNA increases with increasing IPDNA values; the log transformation gives values with a nearly constant variation, and 2) it is expected that drug effects will appear as a constant multiplier of the IPDNA level. Because there are zero values of IPDNA, a small value (about 1/2 of the smallest non-zero value) was added to all values before the log transform.
Two approaches were used to model the changes in slope to week with dose of N-nonyl-DNJ: a linear modeling approach and a nonlinear model. Both approaches assume that the (linear) rate of change of the Log(IPDNA) measure over the dosing period is the "right" measure to reflect the effect of the drug on the virus. Both approaches are fit in stages, and the first stage is common to both approaches. First, a simple straight line regression model is fit using weeks 0-4 to predict log(IPDNA_+_10) separately for each animal by run combination. In the second stage, the response variable is the slope fitted in the first stage.
For the linear approach, a model is fit with slope to week as the response where run is considered a block, dose has a significant effect (almost all of this effect is due to a slope to dose), and the relevant error for testing the effect of dose is the variation among animals treated alike (after the adjustment for the runs as blocks). This is similar to using the calibration data within each run to first adjust each run's data to a common virus DNA concentration; the difference is that here the data from the woodchucks are used for the run adjustment rather than only the calibration data.
For the nonlinear approach, a four parameter logistic model is fit with the slope to week as the response and the dose as the predictor. […]

[3] = Cell viability by trypan blue exclusion; type: cell-based; conditions: human, hepg2.2.15 cells, 3 days, cells excluding trypan blue, read-out: % Viable +/-1 S.D.
[4] = MTT-based colorimetric cell viability assay; conditions: human, hepg2.2.15 cells; read-out: [] for a 50% reduction in MMT
Description: as §1
• 1: N-(n-nonyl)-1,5-dideoxy-1,5-imino-D-glucitol • 2: N-(n-butyl)-1,5-dideoxy-1,5-imino-D-glucitol, diacetate • 3: 1,5-dideoxy-1,5-imino-D-glucitol, tetracetate • 4: N,O-(1,6-carbonyl)-1,5-dideoxy-1,5-imino-D-glucitol • 5: N-(n-butyl)-2,3-dimethoxy-1,5-dideoxy-1,5-imino-D-glucitol • 6: N-(n-hexyl)-4,6-benzylidine-1,5-dideoxy-1,5-imino-D-glucitol • 7: N-(n-butyl)-3-methoxy-1,5-dideoxy-1,5-imino-D-glucitol • 8: N-(4,4,4-triflourobutyl)-2,3-dimethoxy-1,5-dideoxy-1,5-imino-D-glucitol, tetracetate • 9: N,O-(1,6-methylenecarbonyl)-1,5-dideoxy-1,5-irriino-D-glucitol • 10: N-(8,8,8-triflourooctyl)-1,5-dideoxy-1,5-imino-D-glucitol MMT: 3-(4,5-dimethylthiazol-2-yl)-2,5-diphenyltetrazolium bromide. The MTT-based colorimetric assay is a measurement of cell viability (Heo et al. (1990) Cancer Research 50:3681-3690).

[5] = concentration [200] (unit not given)
[6] = concentration [1000] (unit not given)

1,5-(butylimino)-1,5-dideoxy-D-glucitol, tetraacetate [Example 2]
Relative amount of HBV secreted as a % of Control (Hepatitis B Virus; [5]): 107.0 +/-12 (n=3) %
Relative amount of HBV secreted as a % of Control (Hepatitis B Virus; [6]): 38.0 +/-15 (n=3) %
[ ] for 90% HBV secretion inhibition (Hepatitis B Virus; duplicate PCR results, * lowest concentration tested, ** no inhibition at the highest concentration used (200 microgs/ml)): >200*s* microgs per ml
% Viable +/-1 S.D. (HepG2.2.15 cells; [5]): 90 +/-6 (n=4) %
% Viable +/-1 S.D. (HepG2.2.15 cells; [6]): 89 +/-4 (n=4) %

CCCCCCCCCN1C[C@H](O)[C@@H](O)[C@H](O)[C@H]1CO [Compound 1 (Table 3), N-(n-nonyl)-1,5-dideoxy-1,5-imino-D-glucitol]
IC90 [1]: 4 to 10 µg/mL
effect on immune precipitated DNA (IPDNA) (HBV DNA): marked effect
effect on total HBV DNA (HBV DNA): little or no effect
decrease of IPDNA at the minimum slope ([2]; corresponds to the average minimum slope): about 25 %/week
average minimum slope observed ([2]; printed as 'fewer' (a decrease), weeks 0-4): 0.31 Log(IPDNA g/mL)/week
effect on total HBV DNA measurements ([2]; quantitative PCR, all dose levels, pre-dose and dosed portions of the study): no effect
IPDNA levels over the dosing period ([2]; weeks 0-4, immune precipitation followed by quantitative PCR): high dose animals tended to have decreasing levels of IPDNA

CCCCN1C[C@H](O)[C@@H](O)[C@H](O)[C@H]1CO [NBDNJ, N-(n-butyl-)-1,5-dideoxy-1,5-imino-D-glucitol]
IC90 (Hepatitis B Virus; Hepatitis B virus, HepG2.2.15, duplicate PCR results, * lowest concentration tested, ** no inhibition at the highest concentration used (200 microgs/ml), read-out: [ ] for 90% HBV secretion inhibition): 0.5 to 1 µg/mL (≈ 2.28 to 4.56 µM)
Relative amount of HBV secreted as a % of Control (Hepatitis B Virus; [5]): 37.0 +/-13 (n=15) %
Relative amount of HBV secreted as a % of Control (Hepatitis B Virus; [6]): 3.2 +/-5 (n=15) %
viability at 72 h ([3]; concentration [200] (unit inferred)): 94 ± 6%
viability at 72 h ([3]; concentration [1000] (unit inferred)): 87 ± 3%
% Viable +/-1 S.D. (HepG2.2.15 cells; concentration [200] (unit not given), listed as 1, 4320 min): 90 +/-2 (n=4) %
CC50 [4]: 100 to 200 µg/mL (≈ 456 to 912 µM)
